Strand notation (5' to 3'): a small letter for the sugar, then the base; units joined by * are phosphorothioate-linked, units joined directly phosphodiester-linked; [ ] holds rarer units or linkages, { } end groups; capitals alone tell only the bases. k = constrained ethyl (cEt); [5mC] = 5-methylcytosine; d = 2'-deoxy (DNA)
system: Yap1 mRNA; test: Antisense inhibition of human Yap1 in A-431 cells by cEt gapmers, single dose (Example 2, RTS4814); type: cell-based; conditions: Table 18; A-431 cells, 5,000 cells per well, free uptake, 2,000 nM modified oligonucleotide, approx. 48 hours; RTS4814; normalized to RIBOGREEN; Yap1 mRNA as percent of untreated control
Method in brief: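 A-431 cells (5,000/well) took up 2,000 nM 3-10-3 cEt gapmer by free uptake for ~48 h. Yap1 mRNA was quantified by qRT-PCR with primer probe set RTS4814, normalized to RIBOGREEN total RNA, and reported as % of untreated control.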

Substance | YAP1 (% UTC)
1074244 (antisense k[5mC]*kT*k[5mC]*dT*dG*dA*d[5mC]*d[5mC]*dA*dG*dA*dA*dG*kA*kT*kG) [Compound 1074244] | 95 % UTC
1074276 (antisense k[5mC]*k[5mC]*kA*dA*dG*dA*dG*dG*dT*dG*dG*dT*d[5mC]*kT*kT*kG) [Compound 1074276] | 87 % UTC
1074308 (antisense kG*k[5mC]*kA*dT*dT*dG*d[5mC]*d[5mC]*dT*dG*dT*dG*dG*k[5mC]*k[5mC]*kT) [Compound 1074308] | 132 % UTC
1074340 (antisense kT*k[5mC]*k[5mC]*d[5mC]*dG*dG*dG*dA*dG*dA*dA*dG*dA*k[5mC]*kA*k[5mC]) [Compound 1074340] | 120 % UTC

same assay, conditions: Table 19; A-431 cells, 5,000 cells per well, free uptake, 2,000 nM modified oligonucleotide, approx. 48 hours; RTS4814; normalized to RIBOGREEN; Yap1 mRNA as percent of untreated control

Substance | YAP1 (% UTC)
1074245 (antisense kA*kG*kA*dA*dG*dT*dA*dT*d[5mC]*dT*d[5mC]*dT*dG*kA*k[5mC]*k[5mC]) [Compound 1074245] | 5 % UTC
1074277 (antisense kG*kT*k[5mC]*dT*dA*dG*d[5mC]*d[5mC]*dA*dA*dG*dA*dG*kG*kT*kG) [Compound 1074277] | 18 % UTC
1074309 (antisense k[5mC]*k[5mC]*kG*d[5mC]*dA*dT*dT*dG*d[5mC]*d[5mC]*dT*dG*dT*kG*kG*k[5mC]) [Compound 1074309] | 80 % UTC
1074341 (antisense kA*kT*k[5mC]*d[5mC]*d[5mC]*dG*dG*dG*dA*dG*dA*dA*dG*kA*k[5mC]*kA) [Compound 1074341] | 106 % UTC

same assay, conditions: Table 20; Yap1 mRNA, percent of untreated control; 3-10-3 cEt gapmers targeting SEQ ID NO.: 1 and 2

Substance | YAP1 (% UTC)
1074246 (antisense kA*kA*kG*dA*dA*dG*dT*dA*dT*d[5mC]*dT*d[5mC]*dT*kG*kA*k[5mC]) [Compound 1074246] | 11 % UTC
1074278 (antisense k[5mC]*kT*kT*dG*dG*dG*dT*d[5mC]*dT*dA*dG*d[5mC]*d[5mC]*kA*kA*kG) [Compound 1074278] | 31 % UTC
1074310 (antisense kT*k[5mC]*k[5mC]*dG*d[5mC]*dA*dT*dT*dG*d[5mC]*d[5mC]*dT*dG*kT*kG*kG) [Compound 1074310] | 100 % UTC
1074342 (antisense k[5mC]*kA*kT*d[5mC]*d[5mC]*d[5mC]*dG*dG*dG*dA*dG*dA*dA*kG*kA*k[5mC]) [Compound 1074342] | 56 % UTC

same assay, conditions: Table 21; Yap1 mRNA, percent of untreated control; 3-10-3 cEt gapmers targeting SEQ ID NO.: 1 and 2

Substance | YAP1 (% UTC)
1074247 (antisense kA*kT*k[5mC]*dG*dA*dT*dG*dT*dG*dA*dT*dT*dT*kA*kA*kG) [Compound 1074247] | 43 % UTC
1074279 (antisense kG*kT*k[5mC]*dA*dA*dG*d[5mC]*d[5mC]*dT*dT*dG*dG*dG*kT*k[5mC]*kT) [Compound 1074279] | 13 % UTC
1074311 (antisense kT*kT*k[5mC]*d[5mC]*dG*d[5mC]*dA*dT*dT*dG*d[5mC]*d[5mC]*dT*kG*kT*kG) [Compound 1074311] | 24 % UTC

same assay, conditions: Table 22; Yap1 mRNA as percent of untreated control; 3-10-3 cEt gapmers; single dose

Substance | YAP1 (% UTC)
1074248 (antisense kG*kA*kT*d[5mC]*dG*dA*dT*dG*dT*dG*dA*dT*dT*kT*kA*kA) [Compound 1074248] | 29 % UTC
1074280 (antisense kG*kG*kT*d[5mC]*dA*dA*dG*d[5mC]*d[5mC]*dT*dT*dG*dG*kG*kT*k[5mC]) [Compound 1074280] | 43 % UTC
1074312 (antisense kA*kT*kA*dT*dT*d[5mC]*d[5mC]*dG*d[5mC]*dA*dT*dT*dG*k[5mC]*k[5mC]*kT) [Compound 1074312] | 18 % UTC

same assay, conditions: Table 23; Yap1 mRNA as percent of untreated control; 3-10-3 cEt gapmers; single dose

Substance | YAP1 (% UTC)
1074249 (antisense kT*kG*kA*dT*d[5mC]*dG*dA*dT*dG*dT*dG*dA*dT*kT*kT*kA) [Compound 1074249] | 23 % UTC
1074281 (antisense kG*kA*kG*dG*dG*dT*d[5mC]*dA*dA*dG*d[5mC]*d[5mC]*dT*kT*kG*kG) [Compound 1074281] | 91 % UTC
1074313 (antisense kT*kG*kA*dT*dA*dT*dT*d[5mC]*d[5mC]*dG*d[5mC]*dA*dT*kT*kG*k[5mC]) [Compound 1074313] | 5 % UTC

same assay, conditions: Table 24; Yap1 mRNA as percent of untreated control; 3-10-3 cEt gapmers targeting SEQ ID NO.: 1, and 2

Substance | YAP1 (% UTC)
1074218 (antisense kA*kG*kG*dG*d[5mC]*dT*d[5mC]*d[5mC]*dT*dG*d[5mC]*dA*dG*kT*kG*k[5mC]) [Compound 1074218] | 70 % UTC
1074250 (antisense k[5mC]*kT*kG*dA*dT*d[5mC]*dG*dA*dT*dG*dT*dG*dA*kT*kT*kT) [Compound 1074250] | 6 % UTC
1074282 (antisense k[5mC]*kG*kA*dG*dG*dG*dT*d[5mC]*dA*dA*dG*d[5mC]*d[5mC]*kT*kT*kG) [Compound 1074282] | 83 % UTC
1074314 (antisense kA*kT*kT*dG*dA*dT*dA*dT*dT*d[5mC]*d[5mC]*dG*d[5mC]*kA*kT*kT) [Compound 1074314] | 12 % UTC

same assay, conditions: Table 25; Yap1 mRNA as percent of untreated control; 3-10-3 cEt gapmers targeting SEQ ID NO.: 1, and 2

Substance | YAP1 (% UTC)
1074219 (antisense kA*kG*kT*d[5mC]*dA*dG*dG*dG*d[5mC]*dT*d[5mC]*d[5mC]*dT*kG*k[5mC]*kA) [Compound 1074219] | 30 % UTC
1074251 (antisense kT*k[5mC]*kT*dG*dA*dT*d[5mC]*dG*dA*dT*dG*dT*dG*kA*kT*kT) [Compound 1074251] | 7 % UTC
1074283 (antisense kA*kA*kA*dA*d[5mC]*dG*dA*dG*dG*dG*dT*d[5mC]*dA*kA*kG*k[5mC]) [Compound 1074283] | 12 % UTC
1074315 (antisense kG*kA*kT*dT*dG*dA*dT*dA*dT*dT*d[5mC]*d[5mC]*dG*k[5mC]*kA*kT) [Compound 1074315] | 3 % UTC

same assay, conditions: Table 32; Yap1 mRNA, percent of untreated control; 3-10-3 cEt gapmers targeting SEQ ID NO.: 1, and 2

Substance | YAP1 (% UTC)
1074226 (antisense k[5mC]*kT*kG*dT*d[5mC]*dG*dA*dA*dG*dA*dT*dG*d[5mC]*kT*kG*kA) [compound 1074226] | 10 % UTC
1074258 (antisense kA*kT*kA*dT*dT*d[5mC]*dT*dG*d[5mC]*dT*dG*d[5mC]*dA*k[5mC]*kT*kG) [compound 1074258] | 36 % UTC
1074322 (antisense kA*kG*kG*dG*d[5mC]*dT*dA*dA*d[5mC]*dT*d[5mC]*d[5mC]*dT*kG*kA*k[5mC]) [compound 1074322] | 94 % UTC

same assay, conditions: Table 33; Yap1 mRNA, percent of untreated control; 3-10-3 cEt gapmers targeting SEQ ID NO.: 1, and 2

Substance | YAP1 (% UTC)
1074227 (antisense kA*k[5mC]*kT*dG*dT*d[5mC]*dG*dA*dA*dG*dA*dT*dG*k[5mC]*kT*kG) [compound 1074227] | 10 % UTC
1074259 (antisense kT*k[5mC]*kA*dT*dA*dT*dT*d[5mC]*dT*dG*d[5mC]*dT*dG*k[5mC]*kA*k[5mC]) [compound 1074259] | 38 % UTC
1074291 (antisense k[5mC]*kA*k[5mC]*dT*d[5mC]*dT*dG*dA*d[5mC]*dT*dG*dA*dT*kT*k[5mC]*kT) [compound 1074291] | 11 % UTC
1074323 (antisense k[5mC]*kA*kG*dG*dG*d[5mC]*dT*dA*dA*d[5mC]*dT*d[5mC]*d[5mC]*kT*kG*kA) [compound 1074323] | 116 % UTC

same assay, conditions: Yap1 mRNA as percent of untreated control; A-431 cells; 3-10-3 cEt gapmers targeting SEQ ID NO.: 1, and 2; Table 30

Substance | YAP1 (% UTC)
1074224 (antisense k[5mC]*kA*kG*dA*dG*dA*d[5mC]*dT*dA*d[5mC]*dT*d[5mC]*d[5mC]*kA*kG*kT) [compound 1074224] | 16 % UTC
1074256 (antisense k[5mC]*kA*k[5mC]*dT*dG*dG*dT*dG*dG*dA*d[5mC]*dT*dG*kG*kT*kG) [compound 1074256] | 64 % UTC
1074288 (antisense kG*kA*k[5mC]*dT*dG*dA*dT*dT*d[5mC]*dT*d[5mC]*dT*dG*kG*kT*kT) [compound 1074288] | 48 % UTC
1074320 (antisense kG*kG*k[5mC]*dT*dA*dA*d[5mC]*dT*d[5mC]*d[5mC]*dT*dG*dA*k[5mC]*kA*kT) [compound 1074320] | 80 % UTC

same assay, conditions: Yap1 mRNA as percent of untreated control; A-431 cells; 3-10-3 cEt gapmers targeting SEQ ID NO.: 1, and 2; Table 31

Substance | YAP1 (% UTC)
1074225 (antisense k[5mC]*k[5mC]*kA*dG*dA*dG*dA*d[5mC]*dT*dA*d[5mC]*dT*d[5mC]*k[5mC]*kA*kG) [compound 1074225] | 11 % UTC
1074257 (antisense kG*k[5mC]*kA*d[5mC]*dT*dG*dG*dT*dG*dG*dA*d[5mC]*dT*kG*kG*kT) [compound 1074257] | 29 % UTC
1074289 (antisense kT*kG*kA*d[5mC]*dT*dG*dA*dT*dT*d[5mC]*dT*d[5mC]*dT*kG*kG*kT) [compound 1074289] | 13 % UTC
1074321 (antisense kG*kG*kG*d[5mC]*dT*dA*dA*d[5mC]*dT*d[5mC]*d[5mC]*dT*dG*kA*k[5mC]*kA) [compound 1074321] | 73 % UTC

— US11214803B2, “Modulators of YAP1 expression” (Ionis Pharmaceuticals, Inc., priority 2019, dated 2022)
